Key:
[1] = molecular target: T1, hFASN enzyme (full length) (Homo sapiens, UniProt P49327); experiment: Fatty Acid Synthase (FASN) inhibition scintillation proximity assay; format: biochemical; conditions: for inhibition at 10 µM: read-out: Human FASN % inhibition @ 10 μM, 10 μM test compound; for IC50: read-out: Human FASN pIC50 (converted)
T1 construct: 10 μL hFASN enzyme (full length, 300 ng, purified in house); made in house
Method in brief: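 Full-length in-house purified enzyme (300 ng) was tested in 100 mM KH2PO4 pH 7.5, 1 mM DTT with ³H-acetyl-CoA and malonyl-CoA as substrates; compounds ranged 0.01–30 μM. Reactions were stopped with streptavidin imaging beads, read by LEADseeker at 610 nm, and fitted to a 4-parameter logistic curve.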

A2780 ovarian cells [2] = experiment: A2780 ovarian cell proliferation assay in lipid reduced medium, with palmitate (MTT); format: cell-based; conditions: Homo sapiens, A2780, 96 h; read-out: pIC50 A2780 Ovarian Cell, With Palmitate (converted)
Method in brief: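 Seeded cells were switched next day to lipid-reduced serum, exposed to compound and 25 μM palmitate complexed with fatty-acid-free BSA, and incubated 96 h. Proliferation was then determined by MTT absorbance at 544 nm, with a best-fit curve of signal against concentration.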

A2780 ovarian cells [3] = experiment: A2780 ovarian cell proliferation assay in lipid reduced medium, without palmitate (MTT); format: cell-based; conditions: Homo sapiens, A2780, 96 h; read-out: pIC50 A2780 Ovarian Cell, Without Palmitate (converted)
[4] = system: LNCaP-Vancouver prostate cells; experiment: In vitro LNCaP Vancouver prostate cell proliferation assay in lipid reduced medium; format: cell-based; conditions: read-out: pIC50 LNCaP_Vancouver prostate cell (converted)
[5] = system: PC-3M-Luc-C6 prostate cells; experiment: In vitro PC-3M-Luc-C6 prostate cell proliferation assay in lipid reduced medium; format: cell-based; conditions: 96 h, read-out: pIC50 PC-3M-Luc-C6 prostate cell (converted)
[6] = molecular target: Fatty Acid Synthase Keto-reductase Domain (FASN KR) (Homo sapiens, UniProt P49327); experiment: Fatty Acid Synthase keto-reductase domain (FASN KR) inhibition, NADPH oxidation at 340 nm
Fatty Acid Synthase Keto-reductase Domain (FASN KR), sequence (P49327 whole entry, the tested form may be a part): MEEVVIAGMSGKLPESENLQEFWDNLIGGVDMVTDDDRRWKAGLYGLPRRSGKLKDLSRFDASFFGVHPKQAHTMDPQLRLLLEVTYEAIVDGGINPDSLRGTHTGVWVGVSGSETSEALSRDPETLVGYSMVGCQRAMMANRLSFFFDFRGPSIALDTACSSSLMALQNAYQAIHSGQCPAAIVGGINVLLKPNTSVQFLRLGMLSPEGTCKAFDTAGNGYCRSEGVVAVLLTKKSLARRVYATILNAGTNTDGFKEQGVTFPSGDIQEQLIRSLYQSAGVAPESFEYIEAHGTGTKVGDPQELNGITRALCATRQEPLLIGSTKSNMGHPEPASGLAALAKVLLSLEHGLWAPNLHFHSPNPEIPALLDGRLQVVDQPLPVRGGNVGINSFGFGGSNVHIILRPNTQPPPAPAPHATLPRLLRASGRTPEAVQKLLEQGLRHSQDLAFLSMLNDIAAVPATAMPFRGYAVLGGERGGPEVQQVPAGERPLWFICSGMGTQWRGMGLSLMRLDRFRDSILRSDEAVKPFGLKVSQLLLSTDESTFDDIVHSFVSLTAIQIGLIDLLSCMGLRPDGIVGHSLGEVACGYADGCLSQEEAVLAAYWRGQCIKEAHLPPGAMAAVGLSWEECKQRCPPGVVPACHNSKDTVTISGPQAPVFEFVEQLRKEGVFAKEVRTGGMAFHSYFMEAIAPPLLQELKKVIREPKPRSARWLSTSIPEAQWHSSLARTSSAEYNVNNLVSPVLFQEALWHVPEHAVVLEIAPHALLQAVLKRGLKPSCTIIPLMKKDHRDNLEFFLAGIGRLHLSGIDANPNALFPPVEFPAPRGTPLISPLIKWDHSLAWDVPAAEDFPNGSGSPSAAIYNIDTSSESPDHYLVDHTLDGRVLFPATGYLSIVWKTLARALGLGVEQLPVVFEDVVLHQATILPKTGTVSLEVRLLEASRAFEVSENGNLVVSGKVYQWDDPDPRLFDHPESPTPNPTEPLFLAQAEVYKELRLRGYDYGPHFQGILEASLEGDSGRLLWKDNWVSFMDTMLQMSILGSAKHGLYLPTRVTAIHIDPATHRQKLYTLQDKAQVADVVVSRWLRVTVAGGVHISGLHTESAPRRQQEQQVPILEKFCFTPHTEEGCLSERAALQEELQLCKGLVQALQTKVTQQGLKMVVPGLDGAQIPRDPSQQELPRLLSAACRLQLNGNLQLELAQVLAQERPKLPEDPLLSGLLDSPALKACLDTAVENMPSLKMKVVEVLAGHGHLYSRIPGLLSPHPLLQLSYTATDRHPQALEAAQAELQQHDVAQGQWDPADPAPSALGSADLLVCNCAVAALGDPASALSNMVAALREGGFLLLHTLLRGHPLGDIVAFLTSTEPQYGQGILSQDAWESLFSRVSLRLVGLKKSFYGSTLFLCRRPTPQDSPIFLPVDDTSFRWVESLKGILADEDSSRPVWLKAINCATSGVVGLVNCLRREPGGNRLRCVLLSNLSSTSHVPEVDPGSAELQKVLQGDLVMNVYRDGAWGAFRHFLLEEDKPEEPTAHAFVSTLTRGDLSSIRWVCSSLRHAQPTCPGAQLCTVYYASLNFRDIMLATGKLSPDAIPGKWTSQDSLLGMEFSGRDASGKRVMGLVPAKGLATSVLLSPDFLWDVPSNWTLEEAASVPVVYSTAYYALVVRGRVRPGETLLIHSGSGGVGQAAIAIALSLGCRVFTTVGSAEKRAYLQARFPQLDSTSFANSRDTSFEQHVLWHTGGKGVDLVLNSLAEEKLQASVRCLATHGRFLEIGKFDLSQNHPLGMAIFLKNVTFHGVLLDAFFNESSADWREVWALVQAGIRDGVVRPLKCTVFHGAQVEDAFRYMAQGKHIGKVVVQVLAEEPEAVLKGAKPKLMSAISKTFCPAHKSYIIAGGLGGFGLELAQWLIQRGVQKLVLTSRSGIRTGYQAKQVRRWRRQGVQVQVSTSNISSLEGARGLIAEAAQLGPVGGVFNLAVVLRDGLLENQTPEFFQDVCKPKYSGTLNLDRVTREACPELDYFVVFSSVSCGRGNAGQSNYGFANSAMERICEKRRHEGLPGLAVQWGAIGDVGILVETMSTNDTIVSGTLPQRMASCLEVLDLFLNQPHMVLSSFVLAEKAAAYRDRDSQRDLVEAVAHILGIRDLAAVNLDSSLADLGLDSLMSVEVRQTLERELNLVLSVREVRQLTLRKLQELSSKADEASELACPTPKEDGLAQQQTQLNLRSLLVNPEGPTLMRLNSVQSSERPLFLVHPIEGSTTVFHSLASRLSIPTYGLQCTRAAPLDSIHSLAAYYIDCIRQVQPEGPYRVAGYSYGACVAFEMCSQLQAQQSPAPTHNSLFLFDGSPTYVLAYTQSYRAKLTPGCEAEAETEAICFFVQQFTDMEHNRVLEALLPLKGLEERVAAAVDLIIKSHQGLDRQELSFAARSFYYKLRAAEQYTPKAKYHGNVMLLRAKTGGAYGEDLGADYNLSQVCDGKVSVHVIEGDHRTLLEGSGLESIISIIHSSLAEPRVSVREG
Protocol: After 20 minutes incubation at room temperature the plate was measured again (T2).
The decrease in absorbance was calculated as (Absorbance before incubation T1)−(Absorbance following incubation T2).
A plot of Controlmin versus test compound concentration was fitted to a 4-parameter logistic curve using a non-linear least squares regression method.

T1 sequence (P49327 whole entry): as the sequence (P49327 whole entry, the tested form may be a part) above

| inhibition at 10 µM [1] [%] | IC50 [1] [nM] | IC50 (A2780 ovarian cells [2]) [µM] | IC50 (A2780 ovarian cells [3]) [nM] | IC50 [4] [nM] | IC50 [5] [nM] | IC50 [6] [nM] | SMILES |
| --- | --- | --- | --- | --- | --- | --- | --- |
| 103 | 57.5 | > 10 | 24.5 | 257 | 51.3 | 58.9 | Cc1cc2cc(-c3ccc(C4=NC5(CC5)C(=O)N4C[C@@H]4CCN(C(=O)C5CC5)C4)c(C)c3)ccc2[nH]1 [compound 317] |
| 105 | 28.8 | > 10 | ~13.5 | 112 | 18.6 | 53.7 | Cc1cc2cc(-c3ccc(C4=NC5(CC5)C(=O)N4C[C@@H]4CCN(C(=O)C5CC5)C4)c(F)c3)ccc2[nH]1 [compound 319, (R)-6-((1-(cyclopropanecarbonyl)pyrrolidin-3-yl)methyl)-5-(2-fluoro-4-(2-methyl-1H-indol-5-yl)phenyl)-4,6-diazaspiro[2.4]hept-4-en-7-one] |
| 102 | 25.7 | 6.46 | 25.1 | 251 | 50.1 | ~26.9 | O=C(C1CC1)N1CC(CN2C(=O)C3(CC3)N=C2c2ccc(-c3ccc4cc(Cl)ccc4c3)cc2F)C1 [compound 320, 5-(4-(6-chloronaphthalen-2-yl)-2-fluorophenyl)-6-((1-(cyclopropanecarbonyl)azetidin-3-yl)methyl)-4,6-diazaspiro[2.4]hept-4-en-7-one] |
| 99 | 30.2 | 4.37 | 17.8 | 182 | 50.1 | 47.9 | Cc1cc(-c2ccc3cc(Cl)ccc3c2)ccc1C1=NC2(CC2)C(=O)N1CC1CN(C(=O)C2(C)CC2)C1 [compound 321, 5-(4-(6-chloronaphthalen-2-yl)-2-methylphenyl)-6-((1-(1-methylcyclopropanecarbonyl)azetidin-3-yl)methyl)-4,6-diazaspiro[2.4]hept-4-en-7-one] |
| 102 | 38 | > 10 | 14.8 | 151 | ~34.7 | 79.4 | Cn1cc(-c2ccc(-c3ccc(C4=NC5(CC5)C(=O)N4CC4CN(C(=O)C5CC5)C4)c(F)c3)cc2)cn1 [compound 322, 6-((1-(cyclopropanecarbonyl)azetidin-3-yl)methyl)-5-(3-fluoro-4′-(1-methyl-1H-pyrazol-4-yl)-[1,1′-biphenyl]-4-yl)-4,6-diazaspiro[2.4]hept-4-en-7-one] |
| 101 | 25.1 | > 10 | ~2.88 | 33.1 | 8.32 | 44.7 | Cn1cc(-c2ccc(-c3ccc(C4=NC5(CC5)C(=O)N4C[C@@H]4CCN(C(=O)C5CC5)C4)c(F)c3)cc2)cn1 [compound 323, (R)-6-((1-(cyclopropanecarbonyl)pyrrolidin-3-yl)methyl)-5-(3-fluoro-4′-(1-methyl-1H-pyrazol-4-yl)-[1,1′-biphenyl]-4-yl)-4,6-diazaspiro[2.4]hept-4-en-7-one] |
| 105 | 32.4 | > 10 | 19.5 | 158 | ~30.2 | 67.6 | O=C(C1CC1)N1CC(CN2C(=O)C3(CC3)N=C2c2ccc(-c3ccc4ccc(F)cc4c3)cc2F)C1 [compound 324, 6-((1-(cyclopropanecarbonyl)azetidin-3-yl)methyl)-5-(2-fluoro-4-(7-fluoronaphthalen-2-yl)phenyl)-4,6-diazaspiro[2.4]hept-4-en-7-one] |
| 100 | 79.4 | > 10 | ~49 | 363 | 83.2 | 490 | Cc1cc(-c2ccc(-c3cnn(C(C)C)c3)cc2)ccc1C1=NC2(CC2)C(=O)N1CC1CN(C(=O)C2CC2)C1 [compound 325, 6-((1-(cyclopropanecarbonyl)azetidin-3-yl)methyl)-5-(4′-(1-isopropyl-1H-pyrazol-4-yl)-3-methyl-[1,1′-biphenyl]-4-yl)-4,6-diazaspiro[2.4]hept-4-en-7-one] |
| 103 | 39.8 | 9.12 | ~12 | 170 | 49 | 407 | Cc1cc(-c2ccc(-c3cnn(C4CC4)c3)cc2)ccc1C1=NC2(CC2)C(=O)N1CC1CN(C(=O)C2CC2)C1 [compound 326, 6-((1-(cyclopropanecarbonyl)azetidin-3-yl)methyl)-5-(4′-(1-cyclopropyl-1H-pyrazol-4-yl)-3-methyl-[1,1′-biphenyl]-4-yl)-4,6-diazaspiro[2.4]hept-4-en-7-one] |
| 104 | 32.4 | 8.13 | 10.5 | 138 | 34.7 | 158 | CC(C)n1cc(-c2ccc(-c3ccc(C4=NC5(CC5)C(=O)N4CC4CN(C(=O)C5CC5)C4)c(F)c3)cc2)cn1 [compound 327, 6-((1-(cyclopropanecarbonyl)azetidin-3-yl)methyl)-5-(3-fluoro-4′-(1-isopropyl-1H-pyrazol-4-yl)-[1,1′-biphenyl]-4-yl)-4,6-diazaspiro[2.4]hept-4-en-7-one] |
| 98 | 31.6 | 10 | 5.13 | 53.7 | 16.2 | 79.4 | O=C(C1CC1)N1CC(CN2C(=O)C3(CC3)N=C2c2ccc(-c3ccc(-c4cnn(C5CC5)c4)cc3)cc2F)C1 [compound 328, 6-((1-(cyclopropanecarbonyl)azetidin-3-yl)methyl)-5-(4′-(1-cyclopropyl-1H-pyrazol-4-yl)-3-fluoro-[1,1′-biphenyl]-4-yl)-4,6-diazaspiro[2.4]hept-4-en-7-one] |
| 100 | 66.1 | 5.62 | 69.2 | 617 | 148 | 245 | CC(C)n1cc(-c2ccc(-c3ccc(C4=NC5(CC5)C(=O)N4CC4CN(C(=O)C5CC5)C4)cc3)cc2)cn1 [compound 331] |
| 100 | 18.6 | 4.17 | 12.3 | 107 | 12.3 | 60.3 | COc1ccc2cc(-c3ccc(C4=NC5(CC5)C(=O)N4CC4CN(C(=O)C5(C)CC5)C4)c(C)c3)ccc2c1 [compound 332, 5-(4-(6-methoxynaphthalen-2-yl)-2-methylphenyl)-6-((1-(1-methylcyclopropanecarbonyl)azetidin-3-yl)methyl)-4,6-diazaspiro[2.4]hept-4-en-7-one] |
| 98 | 55 | > 10 | ~33.1 | 537 | ~339 | 178 | Cc1cc(-c2ccc(-c3cnn(C)c3)cc2)ccc1C1=NC2(CC2)C(=O)N1CC1CN(C(=O)C2CC2)C1 [compound 333, 6-((1-(cyclopropanecarbonyl)azetidin-3-yl)methyl)-5-(3-methyl-4′-(1-methyl-1H-pyrazol-4-yl)-[1,1′-biphenyl]-4-yl)-4,6-diazaspiro[2.4]hept-4-en-7-one] |
| 97 | 21.9 | 6.92 | 24 | 162 | 37.2 | 43.7 | Cc1ccc2cc(-c3ccc(C4=NC5(CC5)C(=O)N4CC4CN(C(=O)C5(C)CC5)C4)c(C)c3)ccc2c1 [compound 334, 5-(2-methyl-4-(6-methylnaphthalen-2-yl)phenyl)-6-((1-(1-methylcyclopropanecarbonyl)azetidin-3-yl)methyl)-4,6-diazaspiro[2.4]hept-4-en-7-one] |
| 105 | 64.6 | > 10 | 138 | 603 | ~115 | 166 | Cc1cc(-c2ccc3cnn(C)c3c2)ccc1C1=NC2(CC2)C(=O)N1CC1CN(C(=O)C2(C)CC2)C1 [compound 335, 5-(2-methyl-4-(1-methyl-1H-indazol-6-yl)phenyl)-6-((1-(1-methylcyclopropanecarbonyl)azetidin-3-yl)methyl)-4,6-diazaspiro[2.4]hept-4-en-7-one] |
| 105 | 36.3 | 6.92 | 38 | 79.4 | 20.4 | 79.4 | Cc1cc(-c2ccc(-c3cnn(C4CC4)c3)cc2)ccc1C1=NC2(CC2)C(=O)N1CC1CN(C(=O)C2(C)CC2)C1 [compound 337, 5-(4′-(1-cyclopropyl-1H-pyrazol-4-yl)-3-methyl-[1,1′-biphenyl]-4-yl)-6-((1-(1-methylcyclopropanecarbonyl)azetidin-3-yl)methyl)-4,6-diazaspiro[2.4]hept-4-en-7-one] |
